In brackets after ≈: the same amount, converted by molar mass.
Target: T1, Bile acid receptor (Homo sapiens, UniProt Q96RI1)
T1 sequence (Q96RI1 whole entry): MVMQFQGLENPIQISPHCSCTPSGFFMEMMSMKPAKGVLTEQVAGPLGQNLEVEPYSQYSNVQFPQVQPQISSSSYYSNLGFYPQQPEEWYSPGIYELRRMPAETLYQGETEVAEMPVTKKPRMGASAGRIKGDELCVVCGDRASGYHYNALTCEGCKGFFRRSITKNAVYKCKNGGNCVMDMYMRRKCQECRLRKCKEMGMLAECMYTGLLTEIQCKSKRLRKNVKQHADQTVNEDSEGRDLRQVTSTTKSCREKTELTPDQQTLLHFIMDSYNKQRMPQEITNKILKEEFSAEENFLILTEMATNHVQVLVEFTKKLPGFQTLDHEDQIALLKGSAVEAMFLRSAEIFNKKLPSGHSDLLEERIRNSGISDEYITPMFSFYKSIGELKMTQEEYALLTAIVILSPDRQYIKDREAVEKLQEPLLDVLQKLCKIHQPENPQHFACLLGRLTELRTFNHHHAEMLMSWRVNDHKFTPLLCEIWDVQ
Details: not given

| SMILES | EC50 |
| --- | --- |
| CC(C)OC(=O)C1=CN(C(=O)c2cccc(C(F)(F)F)c2)CC(C)(C)c2cc(C#N)[nH]c21 | 8.5 nM |
| CC(C)OC(=O)C1=CN(C(=O)c2ccc(F)c(F)c2)CC(C)(C)c2cc(C#N)[nH]c21 | 6.3 nM |
| CC(C)OC(=O)C1=CN(C(=O)c2cccs2)CC(C)(C)c2cc(C#N)[nH]c21 | 16 nM |

System: not listed separately
Assay: Aqueous solubility at pH 7.4
Details: aqueous

| SMILES | solubility |
| --- | --- |
| CC(C)OC(=O)C1CN(C(=O)c2ccc(F)cc2)CC(C)(C)c2cc(C#N)[nH]c21 (stereo not given) | > 100 µg/mL |
| CC(C)OC(=O)C1CN(C(=O)c2cccc(F)c2)CC(C)(C)c2cc(C#N)[nH]c21 (stereo not given) | > 100 µg/mL |
| CC(C)OC(=O)C1CN(C(=O)c2ccc(F)c(F)c2)CC(C)(C)c2cc(C#N)[nH]c21 (stereo not given) | 31 µg/mL (≈ 74.6 µM) |
| CC(C)OC(=O)C1CN(C(=O)C2CCOCC2)CC(C)(C)c2cc(C#N)[nH]c21 (stereo not given) | > 100 µg/mL |
| CC(C)OC(=O)C1CN(C(=O)c2cccc(Cl)c2)CC(C)(C)c2cc(C#N)[nH]c21 (stereo not given) | 17 µg/mL (≈ 41.1 µM) |
| CC(C)OC(=O)C1CN(C(=O)c2ccc(C#N)cc2)CC(C)(C)c2cc(C#N)[nH]c21 (stereo not given) | 21 µg/mL (≈ 51.9 µM) |
| CC(C)OC(=O)C1CN(C(=O)C2CCCCC2)CC(C)(C)c2cc(C#N)[nH]c21 (stereo not given) | > 100 µg/mL |
| CC(C)OC(=O)C1CN(C(=O)c2ccc(Cl)cc2)CC(C)(C)c2cc(C#N)[nH]c21 (stereo not given) | 5 µg/mL (≈ 12.1 µM) |

Same assay, conditions: buffer

| SMILES | solubility |
| --- | --- |
| CC(C)OC(=O)C1=CN(C(=O)c2cccc(Cl)c2)CC(C)(C)c2cc(C#N)[nH]c21 | Insoluble(BLD) |
| CC(C)OC(=O)C1=CN(C(=O)c2ccc(C#N)cc2)CC(C)(C)c2cc(C#N)[nH]c21 | Insoluble(BLD) |
| CC(C)OC(=O)C1=CN(C(=O)c2cccc(F)c2)CC(C)(C)c2cc(C#N)[nH]c21 | Insoluble(BLD) |
| CC(C)OC(=O)C1=CN(C(=O)c2cccc(C(F)(F)F)c2)CC(C)(C)c2cc(C#N)[nH]c21 | Insoluble(BLD) |
| CC(C)OC(=O)C1=CN(C(=O)c2ccc(F)c(F)c2)CC(C)(C)c2cc(C#N)[nH]c21 | Insoluble(BLD) |
| CC(C)OC(=O)C1=CN(C(=O)C2CCCCC2)CC(C)(C)c2cc(C#N)[nH]c21 | Insoluble(BLD) |
| CC(C)OC(=O)C1=CN(C(=O)c2ccc(F)cc2)CC(C)(C)c2cc(C#N)[nH]c21 | Insoluble(BLD) |
| CC(C)OC(=O)C1=CN(C(=O)c2ccc(F)c(F)c2)CC(C)(C)c2c1[nH]c1ccccc21 [TUROFEXORATE ISOPROPYL] | Insoluble(BLD) |
| CC(C)OC(=O)C1=CN(C(=O)c2cccs2)CC(C)(C)c2cc(C#N)[nH]c21 | Insoluble(BLD) |

Reference: ChEMBL document CHEMBL1155995, “Pyrrole[2,3-d]azepino compounds as agonists of the farnesoid X receptor (FXR)” (Bioorg Med Chem Lett, 2009)
